We go through eight compounds from PubChem BioAssay (NCI).

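These data come from cells grown in 96-well plates and exposed to compound for 48 hours at five concentrations. TGI: concentration producing complete growth inhibition.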

Among the test systems are ACHN renal; HCT-15 colon; HL-60(TB) leukemia; HOP-92 NSCLC; HT29 colon; IGROV1 ovarian; LOX IMVI melanoma; M14 melanoma; NCI-H23 lung; NCI-H522 lung; PC-3 prostate; SF-539 CNS; SK-MEL-2 melanoma; SK-MEL-5 melanoma; SK-OV-3 ovarian; SN12C renal; SW-620 colon; UACC-257 melanoma; DU-145 prostate; OVCAR-3 ovarian.
Holding throughout (assay): NCI-60 cell line screen, 48 h

Turning to `O=C1O[C@H](c2ccc3c(c2)OCO3)[C@H]2CO[C@@H](c3ccc4c(c3)OCO4)[C@@H]12`, the TGI in the assay on ACHN renal, in the assay with HCT-15 colon, in the assay with HL-60(TB) leukemia, with HOP-92 NSCLC, in the assay with HT29 colon and in the assay with IGROV1 ovarian was greater than 100 µM each time. Further, the TGI with LOX IMVI melanoma, in the assay on M14 melanoma, in the assay with NCI-H23 lung, in the assay on NCI-H522 lung, in the assay with PC-3 prostate and in the assay with SF-539 CNS was greater than 100 µM throughout. The TGI in the assay with SK-MEL-2 melanoma, in the assay on SK-MEL-5 melanoma, with SK-OV-3 ovarian, in the assay with SN12C renal, in the assay on SW-620 colon and with UACC-257 melanoma was greater than 100 µM each time.

As to `Cn1c2ccccc2c(=O)c2cccc(C(=O)NC(CCCN=C(N)N)C(=O)O)c21` (stereo not given), the TGI with ACHN renal, with DU-145 prostate, in the assay with HCT-15 colon, in the assay on HT29 colon, with IGROV1 ovarian and in the assay on LOX IMVI melanoma was greater than 100 µM each time. For the same compound, the TGI in the assay on M14 melanoma, with NCI-H23 lung, in the assay on OVCAR-3 ovarian, with PC-3 prostate, in the assay on SF-539 CNS and in the assay on SK-MEL-2 melanoma was greater than 100 µM each time. Further, the TGI in the assay on SK-MEL-5 melanoma, in the assay on SK-OV-3 ovarian, in the assay with SN12C renal, in the assay on SW-620 colon and in the assay with UACC-257 melanoma was greater than 100 µM each time.

`CSc1sc2ccccc2[s+]1`: the TGI in the assay with ACHN renal, with HCT-15 colon, with HL-60(TB) leukemia, with HOP-92 NSCLC, in the assay with HT29 colon and in the assay on IGROV1 ovarian was greater than 100 µM throughout. Moreover, the TGI with LOX IMVI melanoma, in the assay on M14 melanoma, in the assay on NCI-H522 lung, in the assay on SF-539 CNS, in the assay on SK-MEL-2 melanoma and with SK-MEL-5 melanoma was greater than 100 µM throughout. Also, the TGI with SK-OV-3 ovarian, with SN12C renal, in the assay on SW-620 colon and in the assay with UACC-257 melanoma was greater than 100 µM throughout.

As to `O=C1CSC(/C(=N/Nc2ccccc2)c2nc3ccccc3[nH]2)=N1`, the TGI with ACHN renal is greater than 100 µM; in the assay on HCT-15 colon, greater than 100 µM; with HL-60(TB) leukemia it was greater than 100 µM; with HOP-92 NSCLC, 49.7 µM; in the assay on HT29 colon, greater than 100 µM; in the assay with IGROV1 ovarian, greater than 100 µM. For the same compound, the TGI was greater than 100 µM in the assay on LOX IMVI melanoma; greater than 100 µM with M14 melanoma; greater than 100 µM in the assay with NCI-H23 lung; greater than 100 µM in the assay on NCI-H522 lung; 73.2 µM in the assay on OVCAR-3 ovarian; 85.2 µM in the assay on SF-539 CNS. Besides, the TGI is greater than 100 µM in the assay on SK-MEL-2 melanoma; greater than 100 µM in the assay with SK-MEL-5 melanoma; 73.5 µM with SK-OV-3 ovarian; greater than 100 µM in the assay with SN12C renal; greater than 100 µM in the assay with SW-620 colon; greater than 100 µM in the assay on UACC-257 melanoma.

As to `C=CCc1ccc(Oc2cc(CC=C)c3c(c2O)O[C@@H](CO)[C@H]3c2ccc(O)c(-c3cc(CC=C)ccc3O)c2)cc1`, the TGI was greater than 100 µM in the assay with ACHN renal; greater than 100 µM in the assay on HCT-15 colon; 55.3 µM in the assay with HL-60(TB) leukemia; greater than 100 µM with HOP-92 NSCLC; 49.1 µM in the assay on HT29 colon; 72.8 µM with IGROV1 ovarian. Also, the TGI is 30.9 µM with LOX IMVI melanoma; greater than 100 µM in the assay on M14 melanoma; greater than 100 µM in the assay on NCI-H23 lung; 32.6 µM in the assay with NCI-H522 lung; greater than 100 µM in the assay on OVCAR-3 ovarian; greater than 100 µM in the assay with SF-539 CNS. The TGI in the assay with SK-MEL-2 melanoma is 65.7 µM; in the assay with SK-MEL-5 melanoma, greater than 100 µM; in the assay with SK-OV-3 ovarian it was greater than 100 µM; in the assay with SN12C renal, greater than 100 µM; with SW-620 colon, greater than 100 µM; with UACC-257 melanoma, greater than 100 µM.

Take `CCOC(=O)c1ccc(C)c(N=NN(C)C)c1`: the TGI in the assay on ACHN renal, in the assay with HCT-15 colon, with HL-60(TB) leukemia, with HOP-92 NSCLC, in the assay with HT29 colon and in the assay with IGROV1 ovarian was greater than 100 µM each time. Further, the TGI with LOX IMVI melanoma, in the assay with M14 melanoma, in the assay on NCI-H23 lung, in the assay with NCI-H522 lung, with OVCAR-3 ovarian and in the assay on SF-539 CNS was greater than 100 µM each time. In addition, the TGI in the assay with SK-MEL-2 melanoma, in the assay on SK-MEL-5 melanoma, with SK-OV-3 ovarian, with SN12C renal, in the assay on SW-620 colon and with UACC-257 melanoma was greater than 100 µM in each case.

For `COc1cccc(/C=N/n2c(C)n[nH]c2=O)c1`, the TGI with ACHN renal, in the assay with HCT-15 colon, in the assay on HT29 colon, with M14 melanoma, in the assay with NCI-H23 lung and with OVCAR-3 ovarian was greater than 100 µM in each case. Further, the TGI in the assay with PC-3 prostate, with SF-539 CNS, with SK-MEL-2 melanoma, in the assay on SK-OV-3 ovarian, in the assay with SN12C renal and in the assay on SW-620 colon was greater than 100 µM throughout. This compound also came in with a TGI in the assay on UACC-257 melanoma greater than 100 µM.

As to `COc1c(C(C)C)cc2c3c1OC(=O)[C@@]31CCCC(C)(C)C1CC2` (stereo not given in full), the TGI was greater than 100 µM in the assay with ACHN renal; greater than 100 µM in the assay with HCT-15 colon; 37.4 µM with HL-60(TB) leukemia; greater than 100 µM in the assay with HT29 colon; greater than 100 µM in the assay with IGROV1 ovarian; greater than 100 µM with LOX IMVI melanoma. Moreover, the TGI in the assay on M14 melanoma is greater than 100 µM; with NCI-H23 lung it was 89.9 µM; with NCI-H522 lung, 38.7 µM; in the assay with OVCAR-3 ovarian, 83.3 µM; in the assay on SF-539 CNS it was 44.8 µM; with SK-MEL-2 melanoma it was 84 µM. For the same compound, the TGI was 28.4 µM in the assay on SK-MEL-5 melanoma; 76.1 µM in the assay with SK-OV-3 ovarian; greater than 100 µM with SN12C renal; greater than 100 µM in the assay with SW-620 colon; 54.1 µM in the assay on UACC-257 melanoma.
